Patent publication US11633397B2, “Use of modulators of CCR5 in the treatment of cancer and cancer metastasis” (priority 2012, dated 2023)
Read-outs that look alike come from different tables or passages of the source.

Experiments:
[1] = biological target: CCR5 (Homo sapiens, UniProt P51681); assay: CCL5-induced calcium signaling (Fluo-4-AM intracellular calcium assay) in MDA-MB-231 cells; format: cell-based; conditions: antagonist 100 nmol/L for 30 minutes before addition of CCL5
Protocol: Micrographs illustrate the axis (x-x′) of the pseudoline scan plot. Those axes were used to construct the adjacent intensity versus time plots. […] The data in FIGS. 3B and 3D are mean±SEM of 3 to 4 independent experiments. Statistical analysis was conducted using the Student t test.
Calcium responses induced either by CCL5 or FBS in human cancer cell lines were monitored under fluorescence confocal microscope as previously reported (28). Briefly, breast cancer cells were seeded in 4-well labtek chambers (Nunc) at 10^4 cells/cm^2 and incubated for 1 day. After 12-hour starvation, cells were labeled by incubating them with […] Fluo-4-AM (Molecular Probes) in HBSS for 30 minutes, washed twice, and incubated for additional 30 minutes before imaging under the microscope. Time-lapse images were collected using a Zeiss LSM 510 Meta inverted confocal microscope with the incubator at 37° C. Relative intracellular Ca^2+ concentration was determined by the changes in fluorescent intensity (FI) of Fluo-4-AM upon the addition of CCL5 (60 ng/mL) or FBS (5%) and was calculated as (FIt−FI0)/FI0.
The importance of CCR5 in HIV infection led to the development of different drugs that target this receptor.

[2] = system: MDA-MB-231 cells (MDA.pFULG) established pulmonary metastasis; assay: Growth of established pulmonary metastasis (treatment started 10 days after cell injection); format: in vivo, NOD/SCID mice; conditions: 8 mg/kg every 12 hours; treatment initiated 10 days after injection of cells
Excerpt: (§1) In FIG. 6A, there is shown the effect of CCR5 antagonist on breast cancer cell viability. […] Graph is from a representative experiment carried out by sextuplicate. No statistical differences were found (ANOVA) in 3 independent experiments. In FIG. 6B, there is shown CCR5 expression in MDA-MB-231 cells stably transfected with pcDNA3.1+/Zeo+ (MDA.Vector) or human CCR5 cloned into pCDNA3+Zeo+ (MDA.CCR5). […] Representative experiment from 2 carried out by sextuplicate. […] Thus, the reduction in tumor mass in the lungs is due to the inhibition of “homing” or spread of tumors to the lung. […] Cells expressing eGFP were counted in 3 random fields of 2 different histologic sections (separated 700 μm from each other) per mouse (n=5 mice per group). […]
(§2) MB-MDA-231 cells expressing Luc2-eGFP (called MDA.pFLUG for the rest of the article) were detached with a nonenzymatic cell dissociation buffer (4 mmol/L EDTA in Ca^2+ and Mg^2+-free PBS), resuspended in Dulbecco's PBS without Ca^2+ and Mg^2+ and immediately injected into the tail vein of 8-week-old, female nonobese diabetic/severe combined immunodeficient (NOD/SCID) mice (NCI, Bethesda Md.). […] Data are expressed as total photon flux and were analyzed using Living Image 3.0 software (Caliper Life Sciences). […] Cryosections (10 μm) were counterstained with 4′,6-diamidino-2-phenylindole analyzed by confocal microscopy. […]

[3] = humans; oral dose of 300 mg; cited from earlier work
[4] = system: Hs578T breast cancer cells; assay: FBS-induced 3D invasion into collagen gels, Hs578T; format: cell-based, human; conditions: 100 nmol/L, 5% FBS as chemoattractant
Protocol: (§3) In FIG. 4A, there is shown 3D reconstruction of FBS-induced invasion into collagen gels by Hs578T breast cancer cells in presence of CCR5 antagonists (100 nmol/L). In FIG. 3C there is shown 3D reconstruction of FBS-induced invasion into collagen gels by SUM-159 breast cancer cells in presence of CCR5 antagonists (100 nmol/L).
(§4) The 3-dimensional invasion assay was conducted as previously reported (12). Briefly, 100 μL of 1.67 mg/mL Rat Tail collagen type I (BD Biosciences) was pipetted into the top chamber of a 24-well 8-μm pore Transwell (Corning). The Transwell was incubated at 37° C. overnight to allow the collagen to solidify. A total of 30,000 cells were then seeded on the bottom of the Transwell membrane and allowed to attach. Serum-free growth medium was placed into the bottom chamber, whereas 15 ng/mL CCL5 or 5% FBS was used as a chemoattractant in the medium of the upper chamber. The cells were then chemoattracted across the filter through the collagen above for 3 days. Cells were fixed in 4% formaldehyde, permeabilized with 0.2% Triton-X in PBS, and then stained with 40 μg/mL propidium iodide (PI) for 2 hours. Fluorescence was analyzed by confocal z-sections (one section every 20 μm) at ×10 magnification from the bottom of the filter using a Zeiss LSM 510 Meta inverted confocal microscope at the Kimmel Cancer Center Bioimaging Facility. […]

[5] = system: SUM-159 breast cancer cells; assay: FBS-induced 3D invasion into collagen gels, SUM-159; format: cell-based, human; conditions: SUM-159 cells; 100 nmol/L; 5% FBS as chemoattractant
Protocol: as §3, §4

[6] = system: MDA-MB-231 cells (MDA.pFULG) pulmonary metastases; assay: Experimental lung metastasis assay (tail vein injection of MDA.pFULG cells, BLI, histology); format: in vivo, NOD/SCID mice
Protocol: In FIG. 5A, MDA-MB-231 cells transduced with Luc2-eGFP fusion protein were injected into the tail vein of NOD/SCID mice and the in vivo bioluminescent signal was quantified weekly. […] Tumor area was quantified with the Nikon Elements BR 3.0 software analyzing at low magnification (×40) 2 random fields of 2 different histologic sections (separated 600 μm from each other) per mouse. Statistical analysis was conducted using the Student t test with Welch correction for heterogeneous variances (n=33 and 12 for control and treated groups, respectively).
MB-MDA-231 cells expressing Luc2-eGFP (called MDA.pFLUG for the rest of the article) were detached with a nonenzymatic cell dissociation buffer (4 mmol/L EDTA in Ca^2+ and Mg^2+-free PBS), resuspended in Dulbecco's PBS without Ca^2+ and Mg^2+ and immediately injected into the tail vein of 8-week-old, female nonobese diabetic/severe combined immunodeficient (NOD/SCID) mice (NCI, Bethesda Md.). Each mouse received 10^6 cells. […] Treatment was started immediately after injection or 10 days later for the experiments analyzing the proliferation of established metastasis. For in vivo bioluminescence imaging (BLI), mice were given an intraperitoneal (i.p.) injection with 200 μL of d-luciferin (30 mg/mL). Mice were anesthetized with isoflurane (2% in 1 L/min oxygen), and bioluminescence images were acquired 10 to 15 minutes after d-luciferin injection using the IVIS XR system (Caliper Life Sciences). Acquisition times ranged from 10 seconds (for later time points) to 5 minutes (for early time points). Data are expressed as total photon flux and were analyzed using Living Image 3.0 software (Caliper Life Sciences). For ex vivo BLI, d-luciferin was diluted in PBS to a final concentration of 300 μg/mL and used to soak freshly isolated lungs for 2 to 3 minutes before imaging. Some lungs were stained with India ink, as previously reported (33), or processed and stained with hematoxylin and eosin to corroborate the presence of pulmonary tumors. For homing assays, mice were euthanized 24 hours after the intravenous injection of MDA.pFULG cells. Lungs were perfused with PBS, fixed with freshly prepared formaldehyde (4% in PBS), and frozen in optimum cutting temperature (Sakura Finetek). Cryosections (10 μm) were counterstained with 4′,6-diamidino-2-phenylindole analyzed by confocal microscopy. Animal experiments were approved by the Thomas Jefferson University's Institutional Animal Care and Use Committee.
MDA-MB-231 cells transduced within the Luc2-eGFP lentiviral vector (MDA.pFULG cells) were used in an experimental metastasis model. The Luc2 gene is a codon-optimized version of Luc and cells expressing this reporter were 10 to 100 times brighter than the unmodified Luc gene (30). […]

[7] = system: MDA-MB-231 cells; assay: MTT cell viability assay; format: cell-based, human; conditions: increasing concentrations, 48 hours
Excerpt: In FIG. 6A, there is shown the effect of CCR5 antagonist on breast cancer cell viability. […] Graph is from a representative experiment carried out by sextuplicate. No statistical differences were found (ANOVA) in 3 independent experiments. In FIG. 6B, there is shown CCR5 expression in MDA-MB-231 cells stably transfected with pcDNA3.1+/Zeo+ (MDA.Vector) or human CCR5 cloned into pCDNA3+Zeo+ (MDA.CCR5). […] Representative experiment from 2 carried out by sextuplicate. […] Thus, the reduction in tumor mass in the lungs is due to the inhibition of “homing” or spread of tumors to the lung. […] Cells expressing eGFP were counted in 3 random fields of 2 different histologic sections (separated 700 μm from each other) per mouse (n=5 mice per group). Statistical analysis was conducted using Student t test. Bar in micrographs, 100 μm.
The MTT assay is a colorimetric assay for measuring the activity of cellular enzymes that reduce the tetrazolium dye, 3-(4,5-Dimethylthiazol-2-yl)-2,5-diphenyltetrazolium bromide, a yellow tetrazole (MTT), to its insoluble formazan, giving a purple color. […]
The effects of CCR5 antagonists on cell viability and proliferation rate were estimated using the soluble tetrazolium salt MTT assay (29). […] Then, the reduced (insoluble and colored) formazan was dissolved in DMSO and measured spectrophotometrically at 570 nm. […]

[8] = mice; 16 mg/kg; cited from earlier work
[9] = system: MDA.pFULG cells; assay: Homing assay: lung colonization 24 hours after injection of MDA.pFULG cells; format: in vivo, mice; conditions: 10 administrations (twice a day for 5 days) before i.v. injection of cells; lungs 24 hours after injection
Excerpt: as §1, §2

[10] = 8 mg/kg twice daily, oral gavage

Sequence of CCR5 (P51681 whole entry): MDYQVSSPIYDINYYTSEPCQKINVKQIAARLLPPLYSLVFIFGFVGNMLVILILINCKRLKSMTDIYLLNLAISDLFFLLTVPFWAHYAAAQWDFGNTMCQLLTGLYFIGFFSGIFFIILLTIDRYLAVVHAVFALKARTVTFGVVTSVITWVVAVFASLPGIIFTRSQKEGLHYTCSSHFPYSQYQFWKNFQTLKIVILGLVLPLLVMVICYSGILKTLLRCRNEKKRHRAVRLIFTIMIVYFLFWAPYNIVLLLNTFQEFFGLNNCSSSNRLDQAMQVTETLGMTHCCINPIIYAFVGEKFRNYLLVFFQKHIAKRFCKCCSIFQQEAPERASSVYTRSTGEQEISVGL

Compound	inhibition of CCL5-induced calcium responses [1] [%]	tumor growth of established pulmonary metastasis (in vivo BLI) [2]	Cmax [3] [nM]	FBS-induced breast cancer cell invasion [4]	FBS-induced breast cancer cell invasion [5]	fraction of treated mice with detectable metastatic tumors [6, 10] [%]	reduction of mean size of metastatic tumors (lung histology) [6, 10] [%]	number and size of pulmonary metastases compared with vehicle-treated mice ([6]; 8 mg/kg twice daily, oral gavage, weekly BLI for 5 weeks)	pulmonary tumor burden ([6]; 16 mg/kg/d divided into 2 doses)	cell viability (MTT reduction) [7]	Cmax [8] [nM]	reduction of the number of eGFP cells in the lungs [9] [%]
Cc1nnc(C(C)C)n1[C@@H]1C[C@H]2CC[C@@H](C1)N2CC[C@H](NC(=O)C1CCC(F)(F)CC1)c1ccccc1 [maraviroc, 4,4-difluoro-N-[(1S)-3-[(1R,5S)-3-(3-methyl-5-propan-2-yl-1,2,4-triazol-4-yl)-8-azabicyclo[3.2.1]octan-8-yl]-1-phenylpropyl]cyclohexane-1-carboxamide]	65	did not modify tumor growth	1200	inhibited FBS-induced breast cancer cell invasion	inhibited FBS-induced breast cancer cell invasion	50	65	significant reduction	significantly reduced	did not affect the MTT reduction	1040	40
COC[C@@H](c1ccc(C(F)(F)F)cc1)N1CCN(C2(C)CCN(C(=O)c3c(C)ncnc3C)CC2)C[C@@H]1C [vicriviroc, (4,6-dimethylpyrimidin-5-yl)-[4-[(3S)-4-[(1R)-2-methoxy-1-[4-(trifluoromethyl)phenyl]ethyl]-3-methylpiperazin-1-yl]-4-methylpiperidin-1-yl]methanone]	90			inhibited FBS-induced breast cancer cell invasion	inhibited FBS-induced breast cancer cell invasion					did not affect the MTT reduction		
